Assay results reported in the supplement of paper PMC10307832.

Assays:
Assay in all cases: relative viability (nuclei count vs DMSO), 5 days (fraction); higher = more cells survive
[1] = compound: C1=CC=C(C(=C1)C2=CC=C(C=C2)C3=CSC4=C3C(=C(C(=O)N4)C#N)O)O + Cc1cc(Nc2cc(N3CCN(C)CC3)nc(Sc3ccc(NC(=O)C4CC4)cc3)n2)n[nH]1 [Tozasertib] (partner 0.1 µM)
In short: (§1)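 Each reported value is a median over duplicate plates. It expresses relative viability: treated-well nuclei count divided by vehicle-well nuclei count. Lung cancer cell lines in 1536-well plates were dosed by pin tool a day after seeding, alone with one drug or with a fixed anchor-drug dose plus five library-drug doses (not always all listed) in √10 steps, and nuclei were counted after 5 days.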

TGX 221 + Trametinib = compound: CC1=CN2C(=O)C=C(N=C2C(=C1)C(C)NC3=CC=CC=C3)N4CCOCC4 [TGX 221] + CC(=O)Nc1cccc(-n2c(=O)n(C3CC3)c(=O)c3c(Nc4ccc(I)cc4F)n(C)c(=O)c(C)c32)c1 [Trametinib] (partner 0.02 µM)
In short: as §1

TGX 221 + Pemetrexed = compound: CC1=CN2C(=O)C=C(N=C2C(=C1)C(C)NC3=CC=CC=C3)N4CCOCC4 [TGX 221] + Nc1nc2[nH]cc(CCc3ccc(C(=O)N[C@@H](CCC(=O)O)C(=O)O)cc3)c2c(=O)[nH]1 [Pemetrexed] (partner 0.2 µM)
In short: as §1

Ricolinostat + Dasatinib = compound: O=C(CCCCCCNC(=O)c1cnc(N(c2ccccc2)c2ccccc2)nc1)NO [Ricolinostat] + Cc1nc(Nc2ncc(C(=O)Nc3c(C)cccc3Cl)s2)cc(N2CCN(CCO)CC2)n1 [Dasatinib] (partner 0.075 µM)
In short: as §1

Cell Line	relative viability ([1]; first compound 0.08 µM)	relative viability ([1]; first compound 0.253 µM)	relative viability ([1]; first compound 0.8 µM)	relative viability ([1]; first compound 2.53 µM)	relative viability ([1]; first compound 8 µM)	relative viability (TGX 221 + Trametinib; first compound 0.08 µM)	relative viability (TGX 221 + Trametinib; first compound 0.253 µM)	relative viability (TGX 221 + Trametinib; first compound 0.8 µM)	relative viability (TGX 221 + Trametinib; first compound 2.53 µM)	relative viability (TGX 221 + Trametinib; first compound 8 µM)	relative viability (TGX 221 + Pemetrexed; first compound 0.08 µM)	relative viability (TGX 221 + Pemetrexed; first compound 0.253 µM)	relative viability (TGX 221 + Pemetrexed; first compound 0.8 µM)	relative viability (TGX 221 + Pemetrexed; first compound 2.53 µM)	relative viability (TGX 221 + Pemetrexed; first compound 8 µM)	relative viability (Ricolinostat + Dasatinib; first compound 0.08 µM)	relative viability (Ricolinostat + Dasatinib; first compound 0.253 µM)	relative viability (Ricolinostat + Dasatinib; first compound 0.8 µM)	relative viability (Ricolinostat + Dasatinib; first compound 2.53 µM)
NCI-H522	0.523	0.435	0.548	0.541	0.541	0.658	0.822	0.719	0.623	0.661	0.811	1.01	1.13	1	0.915	0.867	0.884	0.946	0.872
NCI-H596	0.888	0.724	1.09	0.89	0.655	0.654	0.807	0.82	0.908	0.774	0.441	0.419	0.473	0.452	0.479	0.586	0.553	0.613	0.494
NCI-H647	0.2	0.608	0.366	0.314	0.246	0.436	0.375	0.355	0.247	0.297	0.15	0.162	0.18	0.163	0.146	0.109	0.144	0.181	0.246
NCI-H650	0.62	0.821	0.637	0.837	0.683	0.932	0.894	0.974	0.908	0.861	0.87	0.894	0.919	0.882	0.926	0.36	0.463	0.365	0.314
NCI-H661	0.359	0.386	0.357	0.356	0.369	0.584	0.544	0.569	0.591	0.495	0.878	0.919	0.955	0.955	0.853	0.795	0.88	0.889	0.731
NCI-H838	0.264	0.271	0.285	0.309	0.268	0.49	0.456	0.45	0.402	0.355	0.255	0.232	0.235	0.232	0.231		0.318	0.287	0.452
NCI-H1355	0.478	0.516	0.547	0.518	0.476	0.448	0.396	0.406	0.359	0.302	1.03	1.02	1.05	0.998	0.893	0.588	0.69	0.645	0.62
NCI-H1395	0.666	0.843	0.804	0.716	0.772	0.93	0.935	0.831	0.767	0.761	0.73	0.766	0.709	0.604	0.724		0.383	0.368	0.403
NCI-H1437	0.367	0.409	0.44	0.438	0.382	0.462	0.448	0.437	0.38	0.415	0.347	0.294	0.357	0.329	0.259	0.398	0.511	0.337	0.279
NCI-H1650	0.325	0.386	0.417	0.442	0.486	0.456	0.655	0.669	0.596	0.416	0.394	0.408	0.324	0.336	0.28	0.275	0.381	0.289	0.287
NCI-H1651	0.819	0.714	0.792	0.716	0.607	0.809	0.84	0.756	0.764	0.73	0.54	0.628	0.438	0.517	0.586	0.414	0.544	0.428	0.4
NCI-H1666	0.556	0.658	0.577	0.598	0.553	0.726	0.797	0.852	0.884	0.742	0.783	0.852	0.839	0.802	0.856	0.804	0.875	0.827	0.622
NCI-H1734	0.266	0.238	0.279	0.288	0.216	0.678	0.602	0.71	0.66	0.688	0.459	0.399	0.414	0.436	0.395	0.463	0.516	0.51	0.571
NCI-H1755	0.735	0.571	0.544	0.629	0.728	0.792	0.743	0.646	0.647	0.628	0.461	0.344	0.38	0.361	0.39	0.368	0.386	0.472	0.449
NCI-H1793	0.374	0.331	0.354	0.337	0.34	0.462	0.374	0.398	0.357	0.306	0.667	0.64	0.754	0.604	0.68		0.397	0.348	0.322
NCI-H1915	0.428	0.484		0.491	0.382	0.283	0.29	0.29	0.274	0.238	0.459	0.437	0.526	0.452	0.516	0.277	0.29	0.275	0.231
NCI-H1944	0.269	0.281	0.269	0.251	0.228		0.367	0.327	0.401	0.32		0.552	0.533	0.6	0.562	0.189	0.212	0.194	0.201
